T1: ΔN-pvLAAD (Proteus vulgaris, UniProt Q9LCB2)
T1 construct: gene LAD; N-terminal Tat peptide truncated, residues 30-471; recombinant in E. coli M15, Ni-NTA (His tag) and size exclusion
T1 sequence (Q9LCB2 30-471): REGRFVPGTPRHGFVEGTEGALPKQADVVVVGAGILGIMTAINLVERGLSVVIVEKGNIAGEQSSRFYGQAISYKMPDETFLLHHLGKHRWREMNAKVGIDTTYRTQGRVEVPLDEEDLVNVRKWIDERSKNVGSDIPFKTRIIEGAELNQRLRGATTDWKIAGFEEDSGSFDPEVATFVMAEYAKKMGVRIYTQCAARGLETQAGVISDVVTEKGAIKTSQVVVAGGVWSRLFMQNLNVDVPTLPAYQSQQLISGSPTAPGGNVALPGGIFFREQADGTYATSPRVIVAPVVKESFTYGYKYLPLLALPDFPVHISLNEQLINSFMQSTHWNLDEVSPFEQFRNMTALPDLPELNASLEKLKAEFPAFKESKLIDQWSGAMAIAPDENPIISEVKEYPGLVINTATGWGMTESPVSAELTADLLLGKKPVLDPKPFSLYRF

B1: FL-pvLAAD (Proteus vulgaris) (protein)
chain: MAISRRKFIIGGTVVAVAAGAGILTPMLTREGRFVPGTPRHGFVEGTEGALPKQADVVVVGAGILGIMTAINLVERGLSVVIVEKGNIAGEQSSRFYGQAISYKMPDETFLLHHLGKHRWREMNAKVGIDTTYRTQGRVEVPLDEEDLVNVRKWIDERSKNVGSDIPFKTRIIEGAELNQRLRGATTDWKIAGFEEDSGSFDPEVATFVMAEYAKKMGVRIYTQCAARGLETQAGVISDVVTEKGAIKTSQVVVAGGVWSRLFMQNLNVDVPTLPAYQSQQLISGSPTAPGGNVALPGGIFFREQADGTYATSPRVIVAPVVKESFTYGYKYLPLLALPDFPVHISLNEQLINSFMQSTHWNLDEVSPFEQFRNMTALPDLPELNASLEKLKAEFPAFKESKLIDQWSGAMAIAPDENPIISEVKEYPGLVINTATGWGMTESPVSAELTADLLLGKKPVLDPKPFSLYRF
notes: full-length with non-cleaved N-terminal Tat peptide (ends at residue 471); recombinant in E. coli M15, Ni-NTA (His tag) and size exclusion

How the values were obtained:
ΔN-pvLAAD = molecular target: T1, ΔN-pvLAAD; assay: phenylpyruvate formation, absorbance at […] nm; assay type: biochemical; conditions: without membrane; 25 mM substrate; 50 mM potassium phosphate pH 7.5; 25 °C; 10 µM enzyme
purified protein = substrate: N[C@@H](Cc1ccccc1)C(=O)O; assay: purified protein; assay type: biochemical, Proteus vulgaris; conditions: without membrane, 50 mM potassium phosphate pH 7.5, 37 °C, 5 µM enzyme, 5 min

Molecule	phenylpyruvate formation, absorbance at 321 nm (ΔN-pvLAAD)	Km (purified protein)
N[C@@H](Cc1ccccc1)C(=O)O [L-phenylalanine]	does not affect the catalytic activity of pvLAAD in solution	
B1		12.56 ± 3.19 mM

Source: publication PMC5651824, “Membrane binding of the insertion sequence of Proteus vulgaris L-amino acid deaminase stabilizes protein structure and increases catalytic activity” (Scientific Reports, 2017)
